In US8501786B2, “Hydroxymethyl pyrrolidines as beta 3 adrenergic receptor agonists” (Merck Sharp & Dohme Corp., priority 2009, dated 2013):
Counter-ions that a name gives are not always drawn. Like-named read-outs stand apart in the source and are kept apart here.

Tests used:
[1] = target: T1, β3AR (Rattus norvegicus, UniProt P26255); conditions: rats, intravenous administration, cited from earlier work
T1 construct: Following intravenous administration to rats; host or cells: living rats (bladder, in vivo)
T1 sequence (P26255 whole entry): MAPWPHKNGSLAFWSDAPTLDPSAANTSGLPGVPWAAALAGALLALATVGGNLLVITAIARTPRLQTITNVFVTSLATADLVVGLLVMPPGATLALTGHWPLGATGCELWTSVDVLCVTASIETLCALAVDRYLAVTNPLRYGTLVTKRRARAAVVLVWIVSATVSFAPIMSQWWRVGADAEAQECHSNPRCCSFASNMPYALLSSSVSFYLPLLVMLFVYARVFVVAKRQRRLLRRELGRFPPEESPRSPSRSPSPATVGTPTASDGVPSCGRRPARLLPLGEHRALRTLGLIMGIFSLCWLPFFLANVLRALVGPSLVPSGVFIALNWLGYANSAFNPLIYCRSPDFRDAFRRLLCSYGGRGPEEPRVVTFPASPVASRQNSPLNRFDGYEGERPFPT

[2] = target: T2, human β3 adrenergic receptor (Homo sapiens, UniProt P13945); test: Functional assay: cAMP production (LANCE TR-FRET) in CHO cells stably transfected with cloned β3 adrenergic receptor; format: cell-based
T2 construct: stably transfected with the cloned β-adrenergic receptor (β1, β2 or β3); expressed in transfected cells; host or cells: Chinese hamster ovary (CHO) cells, stably transfected
T2 sequence (P13945 whole entry): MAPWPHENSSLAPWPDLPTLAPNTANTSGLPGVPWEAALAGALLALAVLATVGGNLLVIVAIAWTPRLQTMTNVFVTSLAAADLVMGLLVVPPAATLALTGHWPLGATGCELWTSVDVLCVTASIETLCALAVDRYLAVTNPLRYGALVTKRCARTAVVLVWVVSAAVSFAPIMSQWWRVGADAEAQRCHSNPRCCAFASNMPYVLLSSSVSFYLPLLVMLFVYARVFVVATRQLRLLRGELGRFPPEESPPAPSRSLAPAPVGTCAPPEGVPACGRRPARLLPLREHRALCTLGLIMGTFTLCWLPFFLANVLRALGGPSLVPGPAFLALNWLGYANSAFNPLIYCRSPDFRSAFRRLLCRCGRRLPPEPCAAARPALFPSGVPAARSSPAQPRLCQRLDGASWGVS

[3] = Table 3, cAMP production, CHO cells expressing human β3 AR, read-out: Human β3 functional
[4] = cAMP production, CHO cells expressing human β3 AR, read-out: human Beta-3 agonist functional activity
[5] = Table 4, cAMP production, CHO cells expressing human β3 AR, read-out: Human β3 functional
[6] = Table 6, human β3 functional activity given as ranges, read-out: Human β3 functional

Structure (SMILES)	EC50 [2, 5]	EC50 [2, 6]	other results
C[C@H](Cc1ccc2c(c1)OC(C(=O)[O-])(C(=O)[O-])O2)NC[C@H](O)c1cccc(Cl)c1.[Na+].[Na+] [CL316243]	–	–	bladder capacity ([1]; cystometric studies): increases bladder capacity; bladder pressure [1]: reduces bladder pressure
O=C(Nc1ccc(CC2CC[C@H]([C@H](O)c3cccnc3)N2)cc1)[C@@H]1CCc2nnnn21 (some centres unmarked) [Example 172]	–	–	EC50 [2, 3]: 0.001 to 0.01 µM
O=C(Nc1ccc(CC2CC[C@H]([C@H](O)c3cccnc3)N2)cc1)[C@H]1CCc2nnnn21 (some centres unmarked) [Example 173]	–	–	EC50 [2, 3]: 0.001 to 0.01 µM
O=S(=O)(Nc1ccc(C[C@@H]2CC[C@H]([C@H](O)c3cccnc3)N2)cc1)c1ccc(-c2nc(-c3ccc(C(F)(F)F)cc3)cs2)cc1 [Example 222, N-[4-({(2S,5R)-5-[(R)-hydroxy(pyridin-3-yl)methyl]pyrrolidin-2-yl}methyl)phenyl]-4-{4-[4-(trifluoromethyl)phenyl]-1,3-thiazol-2-yl}benzenesulfonamide, trifluoroacetic acid salt]	–	–	EC50 [2, 4]: < 0.01 µM
O=S(=O)(Nc1ccc(CC2CC[C@H]([C@H](O)c3cccnc3)N2)cc1)c1ccc(-c2nc(-c3ccc(C(F)(F)F)cc3)cs2)cc1 (some centres unmarked) [Example 223]	0.001 to 0.01 µM	–	–
O=S(=O)(Nc1ccc(CC2CC[C@H]([C@H](O)c3cccnc3)N2)cc1)c1ccc(I)cc1 (some centres unmarked) [Example 224]	0.011 to 0.1 µM	–	–
O=S(=O)(Nc1ccc(CC2CC[C@H]([C@H](O)c3cccnc3)N2)cc1)c1ccc2ccccc2c1 (some centres unmarked) [Example 225]	0.011 to 0.1 µM	–	–
O=S(=O)(Cc1ccccn1)Nc1ccc(CC2CC[C@H]([C@H](O)c3cccnc3)N2)cc1 (some centres unmarked) [Example 226]	0.101 to 1 µM	–	–
O=S(=O)(Nc1ccc(CC2CC[C@H]([C@H](O)c3cccnc3)N2)cc1)c1ccc(-n2cccn2)cc1 (some centres unmarked) [Example 227]	0.011 to 0.1 µM	–	–
O=S(=O)(Nc1ccc(CC2CC[C@H]([C@H](O)c3cccnc3)N2)cc1)c1ccc2cnccc2c1 (some centres unmarked) [Example 228]	0.101 to 1 µM	–	–
O=S(=O)(Nc1ccc(CC2CC[C@H]([C@H](O)c3cccnc3)N2)cc1)c1cccc2cccnc12 (some centres unmarked) [Example 229]	0.101 to 1 µM	–	–
O=S(=O)(Nc1ccc(CC2CC[C@H]([C@H](O)c3cccnc3)N2)cc1)c1cccc2cnccc12 (some centres unmarked) [Example 230]	0.101 to 1 µM	–	–
O=S(=O)(Nc1ccc(CC2CC[C@H]([C@H](O)c3cccnc3)N2)cc1)c1ccc2ncsc2c1 (some centres unmarked) [Example 231]	0.101 to 1 µM	–	–
O=S(=O)(Nc1ccc(CC2CC[C@H]([C@H](O)c3cccnc3)N2)cc1)c1ccc(-c2cnco2)cc1 (some centres unmarked) [Example 232]	0.011 to 0.1 µM	–	–
O=C(N1CCc2ccc(S(=O)(=O)Nc3ccc(CC4CC[C@H]([C@H](O)c5cccnc5)N4)cc3)cc2C1)C(F)(F)F (some centres unmarked) [Example 233]	0.101 to 1 µM	–	–
O=c1ccc2cc(S(=O)(=O)Nc3ccc(CC4CC[C@H]([C@H](O)c5cccnc5)N4)cc3)ccc2o1 (some centres unmarked) [Example 234]	0.101 to 1 µM	–	–
N#Cc1ccccc1S(=O)(=O)Nc1ccc(CC2CC[C@H]([C@H](O)c3cccnc3)N2)cc1 (some centres unmarked) [Example 235]	0.101 to 1 µM	–	–
N#Cc1cccc(S(=O)(=O)Nc2ccc(CC3CC[C@H]([C@H](O)c4cccnc4)N3)cc2)c1 (some centres unmarked) [Example 236]	0.101 to 1 µM	–	–
N#Cc1ccc(S(=O)(=O)Nc2ccc(CC3CC[C@H]([C@H](O)c4cccnc4)N3)cc2)cc1 (some centres unmarked) [Example 237]	0.101 to 1 µM	–	–
O=S(=O)(Nc1ccc(CC2CC[C@H]([C@H](O)c3cccnc3)N2)cc1)c1ccccc1I (some centres unmarked) [Example 238]	0.101 to 1 µM	–	–
CCCCCCNC(=O)Nc1ccc(S(=O)(=O)Nc2ccc(C[C@@H]3CC[C@H]([C@H](O)c4cccnc4)N3)cc2)cc1 [Example 239, 4-{[(Hexylamino)carbonyl]amino}-N-[4-({(2S,5R)-5-[(R)-hydroxy(pyridin-3-yl)methyl]pyrrolidin-2-yl}methyl)phenyl]benzenesulfonamide, trifluoroacetic acid salt]	–	–	EC50 [2, 4]: < 0.01 µM
Nc1nc(CC(=O)Nc2ccc(CC3CC[C@H]([C@H](O)c4cccnc4)N3)cc2Br)cs1 (some centres unmarked) [Example 242]	–	–	EC50 ([2]; Table 5, human β3 functional activity given as ranges, read-out: Human β3 functional): 0.101 to 1 µM
C[C@H](NC(=O)c1ccccc1F)C(=O)Nc1ccc(C[C@@H]2CC[C@H]([C@H](O)c3cccnc3)N2)cc1 [Example 245, 2-Fluoro-N-((1S)-2-{[4-({(2S,5R)-5-[(R)-hydroxy(pyridin-3-yl)methyl]pyrrolidin-2-yl}methyl)phenyl]amino}-1-methyl-2-oxoethyl)benzamide, trifluoracetic acid salt]	–	–	EC50 [2, 4]: < 0.001 µM
C[C@H](NS(=O)(=O)c1ccc(F)cc1)C(=O)Nc1ccc(C[C@@H]2CC[C@H]([C@H](O)c3cccnc3)N2)cc1 [Example 246, (2S)-2-{[(4-Fluorophenyl)sulfonyl]amino}-N-[4-({(2S,5R)-5-[(R)-hydroxy(pyridin-3-yl)methyl]pyrrolidin-2-yl}methyl)phenyl]propanamide]	–	–	EC50 [2, 4]: < 0.1 µM
CC(C(=O)Nc1ccc(C[C@@H]2CC[C@H]([C@H](O)c3cccnc3)N2)cc1)N(C)C(=O)c1ccccn1 (some centres unmarked) [Example 247]	–	0.101 to 1 µM	–
CC(C(=O)Nc1ccc(C[C@@H]2CC[C@H]([C@H](O)c3cccnc3)N2)cc1)N(C)C(=O)c1ccccc1F (some centres unmarked) [Example 248]	–	0.011 to 0.1 µM	–
CC(=O)NC(C)C(=O)Nc1ccc(C[C@@H]2CC[C@H]([C@H](O)c3cccnc3)N2)cc1 (some centres unmarked) [Example 249]	–	0.011 to 0.1 µM	–
CC(NC(=O)c1c(F)cccc1F)C(=O)Nc1ccc(C[C@@H]2CC[C@H]([C@H](O)c3cccnc3)N2)cc1 (some centres unmarked) [Example 250]	–	< 0.001 µM	–
O=C(Nc1ccc(C[C@@H]2CC[C@H]([C@H](O)c3cncc(F)c3)N2)cc1)[C@@H]1CCc2scnc21 [Example 262, (4R)—N-[4-({(2S,5R)-5-[(R)-(5-fluoropyridin-3-yl)(hydroxy)methyl]pyrrolidin-2-yl}methyl)phenyl]-5,6-dihydro-4H-cyclopenta[d][1,3]thiazole-4-carboxamide, trifluoroacetic acid salt]	–	–	EC50 [2, 4]: < 0.01 µM

Now from value to compound, other results behind:

EC50 [2, 5]	EC50 [2, 6]	Structure (SMILES)	other results
–	0.001 to 0.01 µM	CC(NC(=O)c1cscn1)C(=O)Nc1ccc(C[C@@H]2CC[C@H]([C@H](O)c3cccnc3)N2)cc1 (some centres unmarked) [Example 251]	–
–	0.001 to 0.01 µM	CC(NC(=O)c1nc[nH]n1)C(=O)Nc1ccc(C[C@@H]2CC[C@H]([C@H](O)c3cccnc3)N2)cc1 (some centres unmarked) [Example 252]	–
–	0.011 to 0.1 µM	CC(NC(=O)c1cnccn1)C(=O)Nc1ccc(C[C@@H]2CC[C@H]([C@H](O)c3cccnc3)N2)cc1 (some centres unmarked) [Example 253]	–
–	0.011 to 0.1 µM	CC(N)C(=O)Nc1ccc(C[C@@H]2CC[C@H]([C@H](O)c3cccnc3)N2)cc1 (some centres unmarked) [Example 254]	–
–	< 0.001 µM	CC(NC(=O)c1cccc(F)c1F)C(=O)Nc1ccc(C[C@@H]2CC[C@H]([C@H](O)c3cccnc3)N2)cc1 (some centres unmarked) [Example 255]	–
–	0.011 to 0.1 µM	CC(NS(=O)(=O)c1ccccc1F)C(=O)Nc1ccc(C[C@@H]2CC[C@H]([C@H](O)c3cccnc3)N2)cc1 (some centres unmarked) [Example 256]	–
–	0.011 to 0.1 µM	CC(NS(=O)(=O)c1ccccc1)C(=O)Nc1ccc(C[C@@H]2CC[C@H]([C@H](O)c3cccnc3)N2)cc1 (some centres unmarked) [Example 257]	–
–	0.011 to 0.1 µM	CC(NS(=O)(=O)Cc1ccccc1)C(=O)Nc1ccc(C[C@@H]2CC[C@H]([C@H](O)c3cccnc3)N2)cc1 (some centres unmarked) [Example 258]	–
–	0.001 to 0.01 µM	CC(NC(=O)c1ccc(F)cc1)C(=O)Nc1ccc(C[C@@H]2CC[C@H]([C@H](O)c3cccnc3)N2)cc1 (some centres unmarked) [Example 259]	–
–	< 0.001 µM	CC(NC(=O)c1ccccc1)C(=O)Nc1ccc(C[C@@H]2CC[C@H]([C@H](O)c3cccnc3)N2)cc1 (some centres unmarked) [Example 260]	–
–	0.011 to 0.1 µM	CC(C(=O)Nc1ccc(C[C@@H]2CC[C@H]([C@H](O)c3cccnc3)N2)cc1)N(C)C(=O)c1ccccc1F (some centres unmarked) [Example 261]	–
